# System: Endogenous Huntingtin Protein
# Assay: Endogenous Huntingtin Protein Assay (ELISA-based MSD electrochemiluminescence assay)
# Format: cell-based
# Conditions: MW1 (expanded polyglutamine) or MAB2166 capture antibody; lysates
# Procedure: Compounds of Formula (I) were tested using the Meso Scale Discovery (MSD) Assay provided in International Application No. PCT/US2016/066042, filed on Dec. 11, 2016 and claiming priority to United States Provisional Application U.S. 62/265,652 filed on Dec. 10, 2015, the entire contents of which are incorporated herein by reference.
# The Endogenous Huntingtin Protein assay used in Example 1 was developed using the ELISA-based MSD electrochemiluminescence assay platform.
# Endogenous Huntingtin Protein Assay
# Meso Scale Discovery (MSD) 96-well or 384-well plates were coated overnight at 4° C. with MW1 (expanded polyglutamine) or MAB2166 monoclonal antibody (for capture) at a concentration of 1 μg/mL in PBS (30 μL per well). Plates were then washed three times with 300 μL wash buffer (0.05% Tween-20 in PBS) and blocked (100 μL blocking buffer; 5% BSA in PBS) for 4-5 hours at room temperature with rotational shaking and then washed three times with wash buffer.
# Samples (25 μL) were transferred to the antibody-coated MSD plate and incubated overnight at 4° C. After removal of the lysates, the plate was washed three times with wash buffer, and 25 μL of #5656S (Cell signaling; rabbit monoclonal) secondary antibody (diluted to 0.25 μg/mL in 0.05% Tween-20 in blocking buffer) was added to each well and incubated with shaking for 1 Hour at room temperature. Following incubation with the secondary antibody, the wells were rinsed with wash buffer after which 25 μL of goat anti-rabbit SULFO TAG secondary detection antibody (required aspect of the MSD system) (diluted to 0.25 μg/mL in 0.05% Tween-20 in blocking buffer) was added to each well and incubated with shaking for 1 hour at room temperature. After rinsing three times with wash buffer, 150 μL of read buffer T with surfactant (MSD) were added to each empty well, and the plate was imaged on a SI 6000 imager (MSD) according to manufacturers' instructions provided for 96- or 384-well plates.
row,IC50 [nM],Structure (SMILES)
1,100 to 500,"CC(C)(C)NC1CCN(c2cnc(-c3ccc(-c4cn[nH]c4)c(F)c3F)cn2)C1 (stereo not drawn) [Cpd 63, N-tert-butyl-1-{5-[2,3-difluoro-4-(1H-pyrazol-4-yl)phenyl]pyrazin-2-yl}pyrrolidin-3-amine]"
2,500 to 1000,"CC1(C)CC(Nc2cnc(-c3ccc(-n4nccn4)cc3O)cn2)CC(C)(C)N1 [Cpd 51, 2-{5-[(2,2,6,6-tetramethylpiperidin-4-yl)amino]pyrazin-2-yl}-5-(2H-1,2,3-triazol-2-yl)phenol]"
3,< 100,"CC1(C)CC(Nc2cnc(-c3ccc(-c4cn[nH]c4)cc3O)cn2)CC(C)(C)N1 [Cpd 46, 5-(1H-pyrazol-4-yl)-2-{5-[(2,2,6,6-tetramethylpiperidin-4-yl)amino]pyrazin-2-yl}phenol]"
4,500 to 1000,"Cn1ccc(-c2ccc(-c3cnc(NC4CC(C)(C)NC(C)(C)C4)cn3)c(O)c2)n1 [Cpd 55, 5-(1-methyl-1H-pyrazol-3-yl)-2-{5-[(2,2,6,6-tetramethylpiperidin-4-yl)amino]pyrazin-2-yl}phenol]"
5,100 to 500,"CC1(C)CC(Nc2cnc(-c3ccc(-n4ccnc4)cc3O)cn2)CC(C)(C)N1 [Cpd 50, 5-(1H-imidazol-1-yl)-2-{5-[(2,2,6,6-tetramethylpiperidin-4-yl)amino]pyrazin-2-yl}phenol]"
6,100 to 500,"CC1(C)CC(Nc2cnc(-c3ccc(-c4cc[nH]n4)cc3O)cn2)CC(C)(C)N1 [Cpd 58, 5-(1H-pyrazol-3-yl)-2-{5-[(2,2,6,6-tetramethylpiperidin-4-yl)amino]pyrazin-2-yl}phenol]"
7,1000 to 3000,"Oc1cc(-c2cn[nH]c2)ccc1-c1cnc(OC2CCNCC2)cn1 [Cpd 7, 2-{5-[(piperidin-4-yl)oxy]pyrazin-2-yl}-5-(1H-pyrazol-4-yl)phenol]"
8,< 100,"COc1cc(-c2ccc(-c3cnc(NC4CC(C)(C)NC(C)(C)C4)cn3)c(O)c2)ncn1 [Cpd 49, 5-(6-methoxypyrimidin-4-yl)-2-{5-[(2,2,6,6-tetramethylpiperidin-4-yl)amino]pyrazin-2-yl}phenol]"

row,Structure (SMILES),IC50 [nM]
1,"[2H]C([2H])([2H])n1cc(-c2ccc(-c3cnc(N(C)C4CC(C)(C)NC(C)(C)C4)cn3)c(O)c2)cn1 [Cpd 28, 5-[1-(^2H3)methyl-1H-pyrazo1-4-yl]-2-{5-[methyl(2,2,6,6-tetramethylpiperidin-4-yl)amino]pyrazin-2-yl}phenol]",500 to 1000
2,"Cc1cc(-c2cnc(N(C)C3CC(C)(C)NC(C)(C)C3)cn2)c(F)cc1-c1cn[nH]c1 [Cpd 11, 5-[2-fluoro-5-methyl-4-(1H-pyrazol-4-yl)phenyl]-N-methyl-N-(2,2,6,6-tetramethylpiperidin-4-yl)pyrazin-2-amine]",100 to 500
3,"CN(c1cnc(-c2ccc(-c3cn[nH]c3)c(F)c2F)cn1)C1CC(C)(C)NC(C)(C)C1 [Cpd 13, 5-[2,3-difluoro-4-(1H-pyrazol-4-yl)phenyl]-N-methyl-N-(2,2,6,6-tetramethylpiperidin-4-yl)pyrazin-2-amine]",< 100
4,"CN(c1cnc(-c2ccc(-n3cccn3)cc2O)cn1)C1CC(C)(C)NC(C)(C)C1 [Cpd 19, 2-{5-[methyl(2,2,6,6-tetramethylpiperidin-4-yl)amino]pyrazin-2-yl}-5-(1H-pyrazol-1-yl)phenol]",1000 to 3000
5,"CN(c1cnc(-c2ccc(-c3ccnc(O)c3)cc2O)cn1)C1CC(C)(C)NC(C)(C)C1 [Cpd 1, 4-(3-hydroxy-4-{5-[methyl(2,2,6,6-tetramethylpiperidin-4-yl)amino]pyrazin-2-yl}phenyl)pyridin-2-ol]",< 100
6,"CN(c1cnc(-c2cc(F)c(-c3cn[nH]c3)cc2F)cn1)C1CC(C)(C)NC(C)(C)C1 [Cpd 15, 5-[2,5-difluoro-4-(1H-pyrazol-4-yl)phenyl]-N-methyl-N-(2,2,6,6-tetramethylpiperidin-4-yl)pyrazin-2-amine]",< 100
7,"CN(c1cnc(-c2ccc(-c3c[nH]nc3F)cc2O)cn1)C1CC(C)(C)NC(C)(C)C1 [Cpd 43, 5-(3-fluoro-1H-pyrazol-4-yl)-2-{5-[methyl(2,2,6,6-tetramethylpiperidin-4-yl)amino]pyrazin-2-yl}phenol]",100 to 500

# From US12103926B2, “Compounds for treating huntington's disease” (PTC THERAPEUTICS, INC., priority 2018, dated 2024)
